The supplement of paper PMC8967900

Experiments:
Assay in all cases: selective drug sensitivity score (sDSS, relative to normal bone marrow) (sDSS (score)); higher = more potent and effective on the cell line relative to normal bone marrow cells
Conditions in all cases: 72 h
PEER = tested on: PEER
KASUMI-9 = tested on: KASUMI-9
MHH-CALL-4 = tested on: MHH-CALL-4
LC4-1 = tested on: LC4-1
COG-LL-317 = tested on: COG-LL-317
380 = tested on: 380
COG-LL-402h = tested on: COG-LL-402h
KASUMI-10 = tested on: KASUMI-10
P12-ICHIKAWA = tested on: P12-ICHIKAWA
SEM cells = tested on: SEM cells
COG-LL-394h = tested on: COG-LL-394h
TANOUE = tested on: TANOUE
COG-LL-332h = tested on: COG-LL-332h
HAL-01 = tested on: HAL-01
NALL-1 = tested on: NALL-1
SUP-B15 = tested on: SUP-B15
RCH-ACV = tested on: RCH-ACV
ALL-PO = tested on: ALL-PO
MOLT-4 = tested on: MOLT-4
KARPAS-45 = tested on: KARPAS-45
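Also: ALL cell lines in 384-well plates, five doses spanning 10,000-fold, each plate scaled between vehicle and 100 µmol/L benzalkonium chloride controls, sDSS an adapted area-under-curve metric.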

SMILES | selective drug sensitivity score (PEER) | selective drug sensitivity score (KASUMI-9) | selective drug sensitivity score (MHH-CALL-4) | selective drug sensitivity score (LC4-1) | selective drug sensitivity score (COG-LL-317) | selective drug sensitivity score 380 | selective drug sensitivity score (COG-LL-402h) | selective drug sensitivity score (KASUMI-10) | selective drug sensitivity score (P12-ICHIKAWA) | selective drug sensitivity score (SEM cells) | selective drug sensitivity score (COG-LL-394h) | selective drug sensitivity score (TANOUE) | selective drug sensitivity score (COG-LL-332h) | selective drug sensitivity score (HAL-01) | selective drug sensitivity score (NALL-1) | selective drug sensitivity score (SUP-B15) | selective drug sensitivity score (RCH-ACV) | selective drug sensitivity score (ALL-PO) | selective drug sensitivity score (MOLT-4) | selective drug sensitivity score (KARPAS-45)
O[C@H]1CC[C@H](Nc2ncc3nc(Nc4c(F)cc(F)cc4F)n([C@H]4CCOC4)c3n2)CC1 [Tanzisertib] (top concentration 10000 nM) | 0 | 0 | 0.2 | 0 | 0 | 0 | 0 | 0 | 0 | 0 | 0 | 0 | 0 | 0 | 0 | 0 | 0 | 1.9 | 0 | 0
COc1cccc2c1C(=O)c1c(O)c3c(c(O)c1C2=O)C[C@@](O)(C(C)=O)C[C@@H]3O[C@H]1C[C@H](N)[C@H](O)[C@H](C)O1 [Daunorubicin] (top concentration 1000 nM) | -3.84 | 7.06 | 7.46 | 6.36 | 14.8 | 13.7 | 15.8 | 9.06 | 6.96 | 6.06 | 8.66 | -9.54 | 12.1 | -2.24 | -4.04 | 11.9 | 12.6 | -0.34 | 7.86 | -0.34
Cc1cc(OCc2nnc(SC3CCCC3)n2-c2cccnc2)ccc1-c1ccc(S(C)(=O)=O)cc1 [NMS-873] (top concentration 10000 nM) | 22.9 | 1.26 | 6.96 | 4.76 | 0.16 | -4.24 | 2.56 | -0.14 | 19.9 | 5.06 | 14.6 | 19.4 | 5.86 | 1.06 | 3.26 | 10.6 | 11.7 | 4.36 | 17.4 | 11.4
Nc1nc(OCc2cc(Br)cs2)c2[nH]cnc2n1 [Lomeguatrib] (top concentration 10000 nM) | 0 | 0 | 0 | 0.8 | 0 | 0 | 0 | 0 | 0 | 0 | 0 | 0 | 0 | 0 | 0 | 0 | 0.8 | 0.5 | 0 | 0
CO[C@H]1C[C@@H]2CC[C@@H](C)[C@@](O)(O2)C(=O)C(=O)N2CCCC[C@H]2C(=O)O[C@H]([C@H](C)C[C@@H]2CC[C@@H](OP(C)(C)=O)[C@H](OC)C2)CC(=O)[C@H](C)/C=C(\C)[C@@H](O)[C@@H](OC)C(=O)[C@H](C)C[C@H](C)/C=C/C=C/C=C/1C [Ridaforolimus] (top concentration 100 nM) | 7.26 | 6.96 | -4.44 | 4.46 | 2.76 | 24.5 | 4.66 | -4.84 | -0.94 | 5.66 | -4.84 | -4.84 | 7.36 | -4.34 | -4.44 | 8.96 | 18.9 | 2.66 | -2.04 | 1.56
CO[C@H]1C[C@@H]2CC[C@@H](C)[C@@](O)(O2)C(=O)C(=O)N2CCCC[C@H]2C(=O)O[C@H]([C@H](C)C[C@@H]2CC[C@@H](OC(=O)C(C)(CO)CO)[C@H](OC)C2)CC(=O)[C@H](C)/C=C(\C)[C@@H](O)[C@@H](OC)C(=O)[C@H](C)C[C@H](C)/C=C/C=C/C=C/1C [Temsirolimus] (top concentration 100 nM) | 7.16 | 9.06 | -3.54 | 3.46 | 3.96 | 25.5 | 4.66 | -5.04 | -1.44 | 1.36 | -5.04 | -5.04 | 8.46 | -0.74 | -5.04 | 9.86 | 20.8 | 2.56 | -1.24 | 2.26
O=C(c1cc(Cc2n[nH]c(=O)c3ccccc23)ccc1F)N1CCN(C(=O)C2CC2)CC1 [Olaparib] (top concentration 10000 nM) | 1.28 | 4.98 | 8.68 | 2.68 | 13 | 26.8 | 4.38 | 2.88 | -0.82 | 5.18 | -1.32 | -3.42 | 4.98 | 4.88 | 1.28 | 13.1 | 7.38 | -0.12 | 4.18 | 0.38
CS(=O)(=O)N1CCN(Cc2cc3nc(-c4cccc5[nH]ncc45)nc(N4CCOCC4)c3s2)CC1 [Pictilisib] (top concentration 10000 nM) | -2.24 | 10.1 | 9.26 | 0.16 | -0.94 | 16.4 | 12.9 | 3.96 | 1.16 | 9.66 | -0.74 | -5.84 | 0.46 | 14.4 | -0.64 | 0.16 | 26.2 | 14.6 | 9.36 | 6.36
